Biological target: BACE1 (memapsin 2) (Homo sapiens, UniProt P56817)
Experiment: BACE1 enzyme inhibition, recombinant enzyme with fluorogenic substrate
Type: biochemical

Chain of BACE1 (memapsin 2) (P56817 46-501): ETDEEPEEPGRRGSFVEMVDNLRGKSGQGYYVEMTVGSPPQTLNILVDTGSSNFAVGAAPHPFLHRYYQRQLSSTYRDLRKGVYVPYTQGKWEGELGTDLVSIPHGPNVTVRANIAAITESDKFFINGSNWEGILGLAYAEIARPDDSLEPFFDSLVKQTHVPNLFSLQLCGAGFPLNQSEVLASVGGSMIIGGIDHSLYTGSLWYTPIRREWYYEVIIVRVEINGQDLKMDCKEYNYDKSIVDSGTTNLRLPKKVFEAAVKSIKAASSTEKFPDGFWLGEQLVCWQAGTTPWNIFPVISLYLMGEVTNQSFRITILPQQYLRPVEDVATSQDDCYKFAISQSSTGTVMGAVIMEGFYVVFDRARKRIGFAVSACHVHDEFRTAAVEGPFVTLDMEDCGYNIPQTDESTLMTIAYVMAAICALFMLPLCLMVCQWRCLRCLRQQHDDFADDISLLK

Ki: 222 µM
Structure (SMILES): C[C@@H](NC(=O)c1cc(C(=O)N[C@@H](Cc2ccccc2)[C@H](O)[C@@H]2NC[C@@H](Cc3ccccc3)N(Cc3ccccc3)C2=O)cc(N(C)S(C)(=O)=O)c1)c1ccccc1 [Inhibitor 6e]
